pIC50: −log10 of the molar value.
Tests used:
[1] = system: Ba/F3 HER2 A775_G776insYVMA; assay: Growth inhibition of Ba/F3 HER2 mutant cells (CellTiter-Glo); format: cell-based; details: Mus musculus, BaF3, 72 hours
Experimental: The activity of the compounds of the present invention against Ba/F3 HER2 A775_G776insYVMA and Ba/F3 HER2 G776delinsVC mutant cell lines was measured using the CellTiter-Glo system purchased from Promega as follows. CellTiter-Glo assay is a method to measure cell viability by monitoring ATP present in cells. Ba/F3 HER2 A775_G776insYVMA and Ba/F3 HER2 G776delinsVC mutant cell lines were purchased from Crown Biosciences. Ba/F3 HER2 A775_G776insYVMA and Ba/F3 HER2 G776delinsVC mutant cell lines were cultured in RPMI containing 10% FBS and 1% penicillin-streptomycin with 1 μg/mL of puromycin in a CO2 incubator at 37° C.
(§1) The analysis of the ability of the compounds to inhibit the growth of HER2 mutant cells was performed according to the following method. 1,000 cells/100 μL were seeded in a 96-well cell culture plate, and 24 hours thereafter, the compounds represented by Formula 1 were treated with 0 μM, 0.01 μM, 0.03 μM, 0.1 μM, 0.3 μM, 1 μM, 3 μM, and 10 μM. After reacting for 72 hours, the plate treated with the compounds were left at room temperature for 30 minutes, 100 μL of a reagent was added thereto, and then shaken at room temperature for 10 minutes. Finally, using equipment, the ratio of […] was measured to confirm the cell growth inhibition ability of the compounds. The measured values at 8 compound concentrations were analyzed using the Prism program (version 5.01, Graphpad Software, Inc.), and the IC50 (μM) values, which are measures of the compounds' inhibitory ability, were calculated.

HER2 A775_G776insYVMA = HER2 A775_G776insYVMA (Homo sapiens (Human), UniProt P04626, INS775YVMA); assay: HTRF inhibitory activity against HER2 mutant enzyme; format: biochemical; details: recombinant enzyme, 37° C. for 2 hours
Sequence of HER2 A775_G776insYVMA (P04626 other isoform, or with tags, fused parts or gaps del 1-675/ins YVMA behind 775 limits assumed): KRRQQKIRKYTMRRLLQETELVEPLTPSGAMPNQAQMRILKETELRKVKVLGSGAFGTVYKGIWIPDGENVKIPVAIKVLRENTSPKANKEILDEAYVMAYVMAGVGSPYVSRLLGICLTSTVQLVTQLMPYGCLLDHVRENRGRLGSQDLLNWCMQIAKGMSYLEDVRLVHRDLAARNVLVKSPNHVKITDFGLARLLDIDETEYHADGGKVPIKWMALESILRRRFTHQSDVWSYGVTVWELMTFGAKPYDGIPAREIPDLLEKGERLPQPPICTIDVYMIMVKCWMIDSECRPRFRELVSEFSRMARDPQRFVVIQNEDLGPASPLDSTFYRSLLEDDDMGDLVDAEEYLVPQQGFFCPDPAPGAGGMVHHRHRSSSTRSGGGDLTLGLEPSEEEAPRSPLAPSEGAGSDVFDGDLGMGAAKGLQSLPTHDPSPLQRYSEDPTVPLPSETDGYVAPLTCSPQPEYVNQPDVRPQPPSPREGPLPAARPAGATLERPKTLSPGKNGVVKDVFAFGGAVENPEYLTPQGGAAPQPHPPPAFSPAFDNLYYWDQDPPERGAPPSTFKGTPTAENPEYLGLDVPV
Experimental: The activity of the compounds of the present invention against HER mutant enzymes was measured using the HTRF system purchased by Cisbio as follows. As a HER2 mutant enzyme, the HER2 A775_G776insYVMA mutant enzyme was used by purchasing a recombinant protein provided by Carna Biosciences.
(§2) The composition of the assay buffer used for activity measurement was 50 mM tris-HCl pH 7.5, 100 mM NaCl, 7.5 mM MgCl2, 3 mM KCl, 0.01% tween 20, 0.1% BSA, and 1 mM DTT. In addition thereto, the enzymatic reaction was performed using a peptide substrate labeled with ATP at a concentration of […] and biotin at a concentration of […]. The analysis of the activity inhibitory effect of the compounds on HER2 A775_G776insYVMA mutation was performed according to the following method. • Component 1:4 μL of HER2 A775_G776insYVMA mutant enzyme • Component 2:2 μL of compound solution • Component 3:4 μL of ATP and a biotin labeled peptide
The enzyme reaction begins by first mixing component 1 and component 2 and then adding component 3 thereto. After the reaction at 37° C. for 2 hours, […] of a measurement solution consisting of streptavidin-XL665 and a europium-labeled anti-phosphotyrosine antibody purchased from Cisbio was added to the enzyme reaction solution and reacted at room temperature for 1 hour. […] The measured values at 7 compound concentrations were analyzed using the Prism program (version 5.01, Graphpad Software, Inc.), and the IC50 (μM) values, which are measures of the compounds' inhibitory ability, were calculated.

EGFR A763_Y764insFHEA = EGFR A763_Y764insFHEA (Homo sapiens (Human), UniProt P00533, INS763FHEA); assay: HTRF inhibitory activity against EGFR mutant enzyme (EGFR A763_Y764insFHEA); format: biochemical; details: recombinant enzyme, 37° C. for 2 hours
Sequence of EGFR A763_Y764insFHEA (P00533 other isoform, or with tags, fused parts or gaps del 1-694/ins FHEA behind 763 limits assumed): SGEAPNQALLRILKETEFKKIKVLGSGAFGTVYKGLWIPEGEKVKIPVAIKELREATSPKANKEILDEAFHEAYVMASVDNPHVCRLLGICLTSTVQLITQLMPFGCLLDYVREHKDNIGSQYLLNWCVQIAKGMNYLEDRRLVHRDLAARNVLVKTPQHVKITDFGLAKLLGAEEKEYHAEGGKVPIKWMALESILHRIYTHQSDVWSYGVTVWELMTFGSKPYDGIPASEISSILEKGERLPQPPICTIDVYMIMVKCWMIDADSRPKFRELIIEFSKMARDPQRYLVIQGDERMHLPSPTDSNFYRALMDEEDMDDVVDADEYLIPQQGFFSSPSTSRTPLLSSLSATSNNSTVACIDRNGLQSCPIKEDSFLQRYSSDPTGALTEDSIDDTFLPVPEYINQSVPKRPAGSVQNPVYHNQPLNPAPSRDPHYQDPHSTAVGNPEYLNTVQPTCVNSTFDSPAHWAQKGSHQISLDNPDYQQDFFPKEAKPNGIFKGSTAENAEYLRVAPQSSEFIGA
Experimental: (§3) The activity of the compounds of the present invention against EGFR mutant enzymes was measured using the HTRF system purchased from Cisbio as follows. For an EGFR mutant enzyme, the EGFR del19 enzyme was a recombinant protein purchased from Carna Biosciences, and the EGFR A763_Y764insFHEA enzyme was a recombinant protein purchased from SignalChem, respectively.
as §2, with “An” for “In addition thereto, the”, “the” for “the activity”, “EGFR activity” for “HER2 A775_G776insYVMA mutation”, “EGFR” for “HER2 A775_G776insYVMA”
(§4) The enzyme reaction begins by first mixing component 1 and component 2 and then adding component 3 thereto. After the reaction at 37° C. for 2 hours, […] of a measurement solution consisting of streptavidin-XL665 and a europium-labeled anti-phosphotyrosine antibody purchased from Cisbio was added to the enzyme reaction solution and reacted at room temperature for 1 hour. Finally, the ratio of fluorescence values at 615 nm and 665 nm was measured using Perkin-Elmer's Envision instrument to calculate enzyme activity and confirm the inhibitory ability of the compounds. The measured values at 7 compound concentrations were analyzed using the Prism program (version 5.01, Graphpad Software, Inc.), and the IC50 (μM) values, which are measures of the compounds' inhibitory activity, were calculated.

EGFR del19 = EGFR del19 (Homo sapiens (Human), UniProt P00533, DEL746-750); assay: HTRF inhibitory activity against EGFR mutant enzyme (EGFR del19); format: biochemical; details: recombinant enzyme, 37° C. for 2 hours
Sequence of EGFR del19 (P00533 other isoform, or with tags, fused parts or gaps del 1-668/del 746-750 limits assumed): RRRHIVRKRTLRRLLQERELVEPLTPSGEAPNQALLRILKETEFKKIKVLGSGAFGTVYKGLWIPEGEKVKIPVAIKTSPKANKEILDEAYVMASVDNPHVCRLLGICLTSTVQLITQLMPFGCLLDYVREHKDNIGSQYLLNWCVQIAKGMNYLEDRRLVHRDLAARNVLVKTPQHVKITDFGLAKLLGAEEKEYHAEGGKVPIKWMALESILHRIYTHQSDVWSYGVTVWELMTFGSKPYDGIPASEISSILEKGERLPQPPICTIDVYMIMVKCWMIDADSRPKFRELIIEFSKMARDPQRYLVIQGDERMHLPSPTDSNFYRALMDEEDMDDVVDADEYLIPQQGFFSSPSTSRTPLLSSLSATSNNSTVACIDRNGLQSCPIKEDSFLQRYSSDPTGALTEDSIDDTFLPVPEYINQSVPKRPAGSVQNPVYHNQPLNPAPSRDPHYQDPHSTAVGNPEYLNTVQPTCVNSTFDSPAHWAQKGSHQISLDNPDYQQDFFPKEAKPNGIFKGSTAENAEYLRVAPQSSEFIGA
Experimental: as §3
as §2, with “An” for “In addition thereto, the”, “the” for “the activity”, “EGFR activity” for “HER2 A775_G776insYVMA mutation”, “EGFR” for “HER2 A775_G776insYVMA”
as §4

[2] = system: Ba/F3 EGFR V769_D770insASV; assay: Growth inhibition of Ba/F3 EGFR mutant cells (CellTiter-Glo); format: cell-based; details: 72 hours
Experimental: (§5) The activity of the compounds of the present invention against Ba/F3 EGFR V769_D770insASV and Ba/F3 EGFR D770_N771insSVD mutant cell lines was measured using the CellTiter-Glo system purchased from Promega as follows. CellTiter-Glo assay is a method to measure cell viability by monitoring ATP present in cells. Ba/F3 EGFR V769_D770insASV and Ba/F3 EGFR D770_N771insSVD mutant cell lines were purchased from Crown Biosciences. Ba/F3 EGFR V769_D770insASV and Ba/F3 EGFR D770_N771insSVD mutant cell lines were cultured in RPMI containing 10% FBS and 1% penicillin-streptomycin with 1 μg/mL of puromycin in a 5% CO2 incubator at 37° C.
as §1, with “growth of EGFR mutant cells” for “growth of HER2 mutant cells”, “μM. After incubating for 72” for “μM. After reacting for 72”, “reagent was further added thereto,” for “reagent was added thereto,”

[3] = system: Ba/F3 EGFR D770_N771insSVD; assay: as above; format: cell-based; details: Ba/F3 EGFR-D770-N771ins_SVD, 72 hours
Experimental: as §5
as §1, with “growth of EGFR mutant cells” for “growth of HER2 mutant cells”, “μM. After incubating for 72” for “μM. After reacting for 72”, “reagent was further added thereto,” for “reagent was added thereto,”

| pIC50 [1] | pIC50 (HER2 A775_G776insYVMA) | pIC50 (EGFR A763_Y764insFHEA) | pIC50 (EGFR del19) | pIC50 [2] | pIC50 [3] | SMILES |
| --- | --- | --- | --- | --- | --- | --- |
| 7.30 to 7.52 | 6.85 | 8.40 | > 9.00 | – | – | C=CC(=O)Nc1cc(Nc2ncc(Cl)c(Nc3ccccc3NS(=O)(=O)CCC)n2)c(OC)cc1N(C)CCN(C)C [Example 1, N-(5-((5-chloro-4-((2-(propylsulfonamido)phenyl)amino)pyrimidin-2-yl)amino)-2-((2-(dimethylamino)ethyl)(methyl)amino)-4-methoxyphenyl)acrylamide] |
| 7.30 to 7.52 | 6.51 | 8.52 | > 9.00 | – | – | C=CC(=O)Nc1cc(Nc2ncc(Cl)c(Nc3ccccc3NS(=O)(=O)c3ccccc3)n2)c(OC)cc1N(C)CCN(C)C [Example 2, N-(5-((5-chloro-4-((2-(phenylsulfonamido)phenyl)amino)pyrimidin-2-yl)amino)-2-((2-(dimethylamino)ethyl)(methyl)amino)-4-methoxyphenyl)acrylamide] |
| 7.30 to 7.52 | 6.35 | 8.70 | > 9.00 | – | – | C=CC(=O)Nc1cc(Nc2ncc(Cl)c(Nc3ccccc3NS(=O)(=O)c3ccc(C)cc3)n2)c(OC)cc1N(C)CCN(C)C [Example 3, N-(5-((5-chloro-4-((2-((4-methylphenyl)sulfonamido)phenyl)amino)pyrimidin-2-yl)amino)-2-((2-(dimethylamino)ethyl)(methyl)amino)-4-methoxyphenyl)acrylamide] |
| 7.30 to 7.52 | 7.47 | > 9.00 | > 9.00 | – | – | C=CC(=O)Nc1cc(Nc2ncc(Cl)c(Nc3ccccc3NS(=O)(=O)C(C)C)n2)c(OC)cc1N(C)CCN(C)C [Example 5, N-(5-((5-chloro-4-((2-((1-methylethyl)sulfonamido)phenyl)amino)pyrimidin-2-yl)amino)-2-((2-(dimethylamino)ethyl)(methyl)amino)-4-methoxyphenyl)acrylamide] |
| 7.30 to 7.52 | 5.92 | 7.70 | 8.15 | – | – | C=CC(=O)Nc1cc(Nc2nccc(Nc3ccccc3NS(=O)(=O)c3ccccc3)n2)c(OC)cc1N(C)CCN(C)C [Example 6, N-(2-((2-(dimethylamino)ethyl)(methyl)amino)-4-methoxy-5-((4-((2-(phenylsulfonamido)phenyl)amino)pyrimidin-2-yl)amino)phenyl)acrylamide] |
| 7.30 to 7.52 | 6.55 | 8.30 | > 9.00 | – | – | C=CC(=O)Nc1cc(Nc2nccc(Nc3ccccc3NS(C)(=O)=O)n2)c(OC)cc1N(C)CCN(C)C [Example 7, N-(2-((2-(dimethylamino)ethyl)(methyl)amino)-4-methoxy-5-((4-((2-(methylsulfonamido)phenyl)amino)pyrimidin-2-yl)amino)phenyl)acrylamide] |
| < 7.00 | 7.15 | 9.00 | > 9.00 | < 7.00 | – | C=CC(=O)Nc1cc(Nc2ncc(F)c(Nc3ccccc3NS(C)(=O)=O)n2)c(OC)cc1N(C)CCN(C)C [Example 11, N-(2-((2-(dimethylamino)ethyl)(methyl)amino)-5-((5-fluoro-4-((2-(methylsulfonamido)phenyl)amino)pyrimidin-2-yl)amino)-4-methoxyphenyl)acrylamide] |
| < 7.00 | 7.29 | 8.70 | > 9.00 | < 7.00 | – | C=CC(=O)Nc1cc(Nc2ncc(C)c(Nc3ccccc3NS(C)(=O)=O)n2)c(OC)cc1N(C)CCN(C)C [Example 16, N-(2-((2-(dimethylamino)ethyl)(methyl)amino)-4-methoxy-5-((5-methyl-4-((2-(methylsulfonamido)phenyl)amino)pyrimidin-2-yl)amino)phenyl)acrylamide] |
| 7.30 to 7.52 | 7.34 | 8.52 | 9.00 | – | – | C=CC(=O)Nc1cc(Nc2ncc(Cl)c(Nc3ccccc3NS(C)(=O)=O)n2)c(OC)cc1N(C)CCN1CCCC1 [Example 21, N-(5-((5-chloro-4-((2-(methylsulfonamido)phenyl)amino)pyrimidin-2-yl)amino)-4-methoxy-2-(methyl(2-(pyrrolidin-1-yl)ethyl)amino)phenyl)acrylamide] |
| – | 9.00 | > 9.00 | > 9.00 | 7.52 to 8.00 | > 8.00 | C=CC(=O)Nc1cc(Nc2ncc(Cl)c(Nc3cccc4c3N(S(C)(=O)=O)CC4)n2)c(OC)cc1N(C)CCN1CCCCC1 [Example 72, N-(5-((5-chloro-4-((1-(methylsulfonyl)indolin-7-yl)amino)pyrimidin-2-yl)amino)-4-methoxy-2-(methyl(2-(piperidin-1-yl)ethyl)amino)phenyl)acrylamide] |
| – | > 9.00 | > 9.00 | > 9.00 | > 8.00 | > 8.00 | C=CC(=O)Nc1cc(Nc2ncc(Cl)c(Nc3cccc4c3N(S(C)(=O)=O)CC4)n2)c(OC)cc1N(C)CCN1CCCC1 [Example 74, N-(5-((5-chloro-4-((1-(methylsulfonyl)indolin-7-yl)amino)pyrimidin-2-yl)amino)-4-methoxy-2-(methyl(2-(pyrrolidin-1-yl)ethyl)amino)phenyl)acrylamide] |

— patent US20240343694A1, “PYRIMIDINE DERIVATIVE, METHOD FOR PREPARING SAME, AND PHARMACEUTICAL COMPOSITION FOR PREVENTING OR TREATING CANCER COMPRISING SAME AS ACTIVE INGREDIENT” (KOREA RESERARCH INSTITUTE OF CHEMICAL TECHNOLOGY, priority 2021, published 2024)
